Experimental findings from US7569547B2, “Inhibiting furin with polybasic peptides” (Board of Supervisors of Louisiana State University and …, priority 2001, dated 2009) are described below.

For one data set, the target named is T1, recombinant mouse furin (Mus musculus, UniProt P23188).
T1 construct: truncated N-terminally to the transmembrane domain at His^711 using PCR; myc (C, cleaved yes); hexa-His (C, cleaved yes); made in house; host or cells: DG44 CHO cells, conditioned medium
In words: Furin enzyme assay, hydrolysis of pERTKR-MCA at pH 7.0. The following applies: for type of inhibition of furin (Lineweaver-Burk plots): furin 30 nM, 0, 20 or 40 μM hexapeptide, polyarginines forty-fold lower. The class given is biochemical. From the text: Recombinant convertase preparation. The mouse furin clone was a kind gift from K. Nakayama (Fukuoka University School of Medicine, Fukuoka, Japan). The mouse furin cDNA was truncated N-terminally to the transmembrane domain at His^711 using PCR. This PCR product was then subcloned into pcDNA3.1 (−) myc-His (Invitrogen) at the Nhe1 and Xba1 restriction sites. Dihydrofolate-reductase-negative DG44 Chinese Hamster Ovary (CHO) cells (L. Chasin, Columbia University, New York, N.Y.) were transfected using Lipofectin (Life Technologies), and colonies were selected at 37° C. in 5% CO2 in α-MEM (lacking nucleosides) containing 10% well-dialyzed fetal bovine serum (Life Technologies). Conditioned media from colonies were screened using an enzyme assay (see below), and a high-expressing clone was selected. Overexpression of furin was achieved by increasing the methotrexate concentration from 5 nM to 50 μM in five- to ten-fold steps as described in I. Lindberg et al., Methods Neurosci., vol. 23, pp. 94-108 (1995). The amplified lines were tested for increased furin expression by enzyme assay. Once the 50 μM methotrexate level had been reached, cells were split at ratios of 1:6 twice a week. 100 mL of conditioned media (OptiMEM, Life Technologies) containing 100 μg/mL aprotinin (Miles Laboratories, Kankakee, Ill.) was collected from confluent roller bottles every 24 h. The medium was then centrifuged at low speed to remove cells, and the supernatant was stored at −80° C. until use.
Purification of furin: Conditioned medium was thawed, pooled, and diluted 1:3.5 with buffer A (20 mM HEPES, 0.1% Brij 35, 5 mM CaCl2, pH 7.4), and pumped at 40 mL/min through a Sartorius D100 anion exchange membrane. The membrane was washed with 40 mL of buffer A, followed by 40 mL of buffer A containing 50 mM NaCl, and finally by 40 mL of buffer A containing 200 mM NaCl. The fraction eluting with 200 mM NaCl was diluted 1:4 with buffer A and applied to a 1 mL Pharmacia Mono Q HR5/5 anion exchange column at a flow rate of 1 mL/min. Following a 10 mL wash with buffer A, furin was eluted by a linear increase of 0 to 500 mM NaCl in buffer A over 30 mL; and 2 mL fractions were collected. Fractions containing peak activity were pooled, and 200 μL aliquots were subjected to gel permeation chromatography using a Pharmacia Superose 12 column at a flow rate of 0.5 mL/min of buffer A containing 200 mM NaCl. Fractions were assayed for activity as described below; protein content was determined using the Bradford method. All purification steps were performed at 4° C.
(§1) Enzyme Assays and Hexapeptide Library Screening. Enzyme assays for PC1 and PC2 were performed at pH 5.0 using pERTKR-MCA (Peptides International Inc., Louisville, Ky.) as described in E. Apletalina et al., J. Biol. Chem., vol. 273, pp. 26589-26595 (1998). The assay for furin was performed using the same substrate at pH 7.0 in 100 mM HEPES, 5 mM CaCl2, 0.1% Brij 35. All assays were performed at 37° C. in a 96 well fluorometer (Labsystems) at an excitation wavelength of 380 nm with emission monitored at a wavelength of 460 nm. The total volume was 50 μL. Unless otherwise stated, the final substrate concentration for all assays was 200 μM. When used in a particular experiment, the inhibitory peptides were pre-incubated with enzyme for 30 min at room temperature prior to addition of substrate. All assays were performed in duplicate or triplicate.

The test system of a further data set is HEK293 cells. Put plainly: Growth of HEK293 cells monitored with the dye WST (cytotoxicity). The class given is cell-based, human. As to the method:
HEK293 cells were seeded into 96-well plates at the densities indicated. Their growth rates were monitored using the dye WST, which is cleaved by mitochondrial dehydrogenases to a […] dye only in viable cells.

Data set [1] concerns the target T2, PC2 (Mus musculus, UniProt P21661).
T2 sequence (P21661 109-637): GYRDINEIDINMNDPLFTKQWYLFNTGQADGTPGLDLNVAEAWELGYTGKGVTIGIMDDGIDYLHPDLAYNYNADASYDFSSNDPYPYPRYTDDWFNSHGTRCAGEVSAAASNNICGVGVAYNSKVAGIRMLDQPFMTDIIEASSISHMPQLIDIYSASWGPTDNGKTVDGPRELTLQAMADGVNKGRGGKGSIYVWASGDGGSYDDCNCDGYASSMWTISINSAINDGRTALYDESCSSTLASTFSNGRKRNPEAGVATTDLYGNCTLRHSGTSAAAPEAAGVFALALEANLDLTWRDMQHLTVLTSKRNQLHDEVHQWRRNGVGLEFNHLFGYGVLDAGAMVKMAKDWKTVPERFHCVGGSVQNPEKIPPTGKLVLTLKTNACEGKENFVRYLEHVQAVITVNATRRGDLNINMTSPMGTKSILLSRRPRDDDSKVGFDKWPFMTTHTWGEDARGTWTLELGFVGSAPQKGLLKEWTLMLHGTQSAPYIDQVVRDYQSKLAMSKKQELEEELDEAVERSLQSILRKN
In words: PC2 enzyme assay, hydrolysis of pERTKR-MCA at pH 5.0. It is filed as biochemical. The arrangement: made in house. The settings on record: data not shown. The procedure:
The proprotein convertases PC1 and PC2 were prepared by ion exchange chromatography as described in G. Frenette et al., Biochim. Biophys. Acta., vol. 1334, pp. 109-115 (1997).
as §1

Data set [2] deals with T2, PC2.

Broadly, the Ki is a measure of affinity in units of concentration, obtained from inhibition or displacement.

Entries after “also recorded” stand apart in the source; their conditions may differ.

T1 sequence (P23188 108-714 limits assumed): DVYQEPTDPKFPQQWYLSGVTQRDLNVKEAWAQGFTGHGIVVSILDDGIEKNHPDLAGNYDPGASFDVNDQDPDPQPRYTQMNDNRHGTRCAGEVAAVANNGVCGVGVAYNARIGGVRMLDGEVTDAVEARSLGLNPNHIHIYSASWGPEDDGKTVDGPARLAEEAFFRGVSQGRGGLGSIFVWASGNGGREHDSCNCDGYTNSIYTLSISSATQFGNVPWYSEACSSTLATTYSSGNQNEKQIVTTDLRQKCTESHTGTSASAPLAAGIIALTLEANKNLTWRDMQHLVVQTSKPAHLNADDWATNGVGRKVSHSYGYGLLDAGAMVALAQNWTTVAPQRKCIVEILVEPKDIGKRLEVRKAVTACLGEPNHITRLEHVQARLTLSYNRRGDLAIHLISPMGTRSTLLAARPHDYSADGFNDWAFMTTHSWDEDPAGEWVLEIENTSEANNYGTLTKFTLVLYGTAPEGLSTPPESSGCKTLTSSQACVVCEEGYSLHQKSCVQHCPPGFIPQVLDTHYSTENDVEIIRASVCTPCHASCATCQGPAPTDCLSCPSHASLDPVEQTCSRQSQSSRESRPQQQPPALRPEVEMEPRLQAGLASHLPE

Consider `N=C(N)NCCC[C@@H](NC(=O)[C@H](N)CCCN=C(N)N)C(=O)N[C@H](CCCNC(=N)N)C(=O)N[C@H](CCCNC(=N)N)C(=O)N[C@H](CCCNC(=N)N)C(=O)N[C@H](CCCN=C(N)N)C(=O)O` [Hexa-D-arginine], for which the “type of inhibition of furin (Lineweaver-Burk plots)” value (“type of inhibition of furin” below) on recombinant mouse furin was “strictly competitive-type inhibition”. Besides, the “mean absorbance at 450 nm (WST)” value is recorded as 0.69 ± 0.02 with HEK293 cells (HEK293, 2 μM D6R, 51 hour); 1.25 ± 0.11 in the data set with HEK293 cells (HEK293, 2 μM D6R, 75 hour); 1.42 ± 0.02 in the data set with HEK293 cells (HEK293, 2 μM D6R, 99 hour); 0.64 ± 0.03 in the data set on HEK293 cells (HEK293, 4 μM D6R, 51 hour); 1.28 ± 0.14 in the data set on HEK293 cells (HEK293, 4 μM D6R, 75 hour); 1.39 ± 0.06 with HEK293 cells (HEK293, 4 μM D6R, 99 hour). Moreover, the “mean absorbance at 450 nm (WST)” value with HEK293 cells (HEK293, 6 μM D6R, 51 hour) is recorded as 0.63 ± 0.04; with HEK293 cells (HEK293, 6 μM D6R, 75 hour), 1.13 ± 0.14; in the data set on HEK293 cells (HEK293, 6 μM D6R, 99 hour) it was 1.48 ± 0.04; with HEK293 cells (HEK293, 8 μM D6R, 51 hour), 0.67 ± 0.01; in the data set with HEK293 cells (HEK293, 8 μM D6R, 75 hour), 1.36 ± 0.08; with HEK293 cells (HEK293, 8 μM D6R, 99 hour), 1.40 ± 0.05. The “mean absorbance at 450 nm (WST)” value amounted to 0.64 ± 0.03 in the data set with HEK293 cells (HEK293, 10 μM D6R, 51 hour); 1.28 ± 0.14 in the data set on HEK293 cells (HEK293, 10 μM D6R, 75 hour); 1.49 ± 0.08 in the data set with HEK293 cells (HEK293, 10 μM D6R, 99 hour); 0.64 ± 0.02 with HEK293 cells (HEK293, 30 μM D6R, 51 hour); 1.29 ± 0.08 with HEK293 cells (HEK293, 30 μM D6R, 75 hour); 1.45 ± 0.06 in the data set on HEK293 cells (HEK293, 30 μM D6R, 99 hour). Moreover, the “mean absorbance at 450 nm (WST)” value with HEK293 cells (HEK293, 60 μM D6R, 51 hour) came out at 0.66 ± 0.05; with HEK293 cells (HEK293, 60 μM D6R, 75 hour), 1.17 ± 0.08; in the data set with HEK293 cells (HEK293, 60 μM D6R, 99 hour) it was 1.48 ± 0.06; with HEK293 cells (HEK293, 100 μM D6R, 51 hour), 0.62 ± 0.03; in the data set on HEK293 cells (HEK293, 100 μM D6R, 75 hour), 1.19 ± 0.11; in the data set with HEK293 cells (HEK293, 100 μM D6R, 99 hour), 1.47 ± 0.09. Also, the “effect on growth of the cells” value in the data set with HEK293 cells (HEK293 cells, 2-100 μM) is “did not significantly affect the growth of the cells”. Also, in the data set on HEK293 cells (HEK293 cells, up to 100 μM final concentration, preliminary data, listed as D6R), the cytotoxicity result is listed as “not toxic to cells; also recorded: did not appear to be cytotoxic”. The “effect on PC2 activity” value on PC2 [1] is on record as “no stimulatory or inhibitory effect”.

For `N=C(N)NCCC[C@H](NC(=O)[C@H](CCCNC(=N)N)NC(=O)[C@H](CCCNC(=N)N)NC(=O)[C@H](CCCNC(=N)N)NC(=O)[C@H](CCCNC(=N)N)NC(=O)[C@@H](N)CCCNC(=N)N)C(=O)O` [Hexa-L-arginine], at recombinant mouse furin, the “type of inhibition of furin” value is reported as “strictly competitive-type inhibition”. At PC2 [1], the “effect on PC2 activity” value is reported as “Stimulates PC2 Activity”.

Turning to `N=C(N)NCCC[C@H](NC(=O)[C@H](CCCNC(=N)N)NC(=O)[C@H](CCCNC(=N)N)NC(=O)[C@H](CCCNC(=N)N)NC(=O)[C@H](CCCNC(=N)N)NC(=O)[C@H](CCCNC(=N)N)NC(=O)[C@H](CCCNC(=N)N)NC(=O)[C@H](CCCNC(=N)N)NC(=O)[C@@H](N)CCCNC(=N)N)C(=O)O` [Nona-L-arginine], at recombinant mouse furin, the Ki was 42 nM and the “type of inhibition of furin” value is recorded as “strictly competitive-type inhibition”. Further, the “cleavage by PC2” value on PC2 [2] is listed as “essentially no cleavage”.
